Laboratory results reported in US4473497A, “Pharmacologically active peptides” (Eli Lilly and Company, priority 1983, dated 1984).

What was measured:
mouse (Harlan ND4) = assay: mouse hot plate test (Mouse Jump test); type: in vivo; settings: subcutaneous injection, 15 minutes after administration, hot plate 55° C., latency to jump
Protocol: In the mouse hot plate test, an upright acrylic cylinder comprising, as its base, a hot plate surface which is maintained at 55° C. is used. A mouse (Harlan ND4) is given, by subcutaneous injection, a predetermined amount of test compound dissolved or suspended in a suitable carrier, and, 15 minutes after administration of the test compound, the mouse is placed on the hot plate surface. The latency in seconds until the mouse jumps from the hot plate surface is measured. […] This must occur in a dose range which produces no motor incoordination or incapacitation. The following Table records ED50 results obtained from this test. By the term "ED50 " is meant that dose which produces analgesia in 50% of the mice tested. Analgesia is defined as a response latency in the presence of test compound that is equal to or greater than the control response latency plus two standard deviations. The percent analgesia data are converted to probits, and the ED50 is calculated by regression analysis of the dose-response data. Each dose response curve must have at least four points, and each point is determined using data from a minimum of ten treated mice and ten control mice.

Cox Standard albino mice = assay: mouse writhing test (acetic acid induced); type: in vivo; settings: 0.6% acetic acid i.p.
Protocol: In the mouse writhing test, a writhing response is defined as a contraction of the abdominal musculature followed by extension of the hind limbs. Acetic acid administered intraperitoneally (10 ml./kg.) at a concentration of 0.6% was used to induce a writhing response. Five Cox Standard albino mice weighing 20-22 g. after being fasted overnight were observed simultaneously for the writhing response. Each mouse was used only once. The observation period was ten minutes and started five minutes following administration of the acetic acid. Inhibition of mouse writhing was calculated from the total number of writhes in the control and test compound-treated groups according to the following formula: [formula]
The dose required to reduce the frequency of writhing by 50% is defined as the ED50 and is calculated by "The Use of Regression Line in Reverse", [Brownlee, K. A., Statistical Theory and Methodology in Science and Engineering, 2nd Ed., New York, John Wiley and Sons (1965)].

## L-(N-Methyl)tyrosyl-D-alanylglycine, [N-ethyl-N-(1-benzyl-2-dimethyloxidoamino)ethyl] amide, Diacetate Salt
Mouse (Harlan ND4)
  ED50 in the Mouse Jump test (dose which produces analgesia in 50% of the mice): 2.5 µg/kg
Cox Standard albino mice; oral administration
  ED50 in the Mouse Writhing test (dose reducing frequency of writhing by 50%): 5.6 mg/kg
Cox Standard albino mice; subcutaneous administration
  ED50 in the Mouse Writhing test (dose reducing frequency of writhing by 50%): 0.1 mg/kg
